# According to ChEMBL document CHEMBL1133711 (J Med Chem, 2000):
# Molecular target: 5-hydroxytryptamine receptor 6 (Homo sapiens, UniProt P50406)
# Assay: Binding affinity for human 5-hydroxytryptamine 6 receptor expressed in HEK 293 human embryonic kidney cells, [3H]-lysergic acid diethylamide as radioligand
# Assay type: cell-based, HEK293
# 5-hydroxytryptamine receptor 6, sequence (P50406 whole entry): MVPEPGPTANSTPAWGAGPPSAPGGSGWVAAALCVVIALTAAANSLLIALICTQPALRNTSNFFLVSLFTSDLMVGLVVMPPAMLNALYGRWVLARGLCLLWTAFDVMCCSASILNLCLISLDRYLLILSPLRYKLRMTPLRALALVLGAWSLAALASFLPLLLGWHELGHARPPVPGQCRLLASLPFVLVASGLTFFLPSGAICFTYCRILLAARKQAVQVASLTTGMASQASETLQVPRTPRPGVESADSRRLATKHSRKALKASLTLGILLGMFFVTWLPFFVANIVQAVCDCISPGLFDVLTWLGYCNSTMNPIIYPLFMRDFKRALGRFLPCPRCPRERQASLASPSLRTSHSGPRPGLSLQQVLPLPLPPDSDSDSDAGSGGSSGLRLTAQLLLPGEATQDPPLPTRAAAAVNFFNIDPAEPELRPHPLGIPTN
row,SMILES,Ki [nM]
1,Cc1[nH]c2ccc(O)cc2c1CCN,46
2,CCc1[nH]c2ccc(OC)cc2c1CCN(C)C,52
3,COc1ccc2[nH]c(C)c(CCN)c2c1,98
4,COc1ccc2[nH]c(C)c(CCN(C)C)c2c1,80
5,CCn1cc(CCN(C)C)c2cc(OC)ccc21,240
6,COc1ccc2c(c1)c(CCN(C)C)cn2C(C)C,130
7,COc1ccc2c(c1)c(CCN(C)C)cn2C,510
8,COc1ccc2[nH]c(-c3ccccc3)c(CCN(C)C)c2c1,54
9,Cc1[nH]c2ccccc2c1CCN(C)C,300
10,CCCn1cc(CCN(C)C)c2cc(OC)ccc21,200

# Molecular target: T1, 5-hydroxytryptamine receptor 3A (Homo sapiens, UniProt P46098)
# T1 sequence (P46098 whole entry): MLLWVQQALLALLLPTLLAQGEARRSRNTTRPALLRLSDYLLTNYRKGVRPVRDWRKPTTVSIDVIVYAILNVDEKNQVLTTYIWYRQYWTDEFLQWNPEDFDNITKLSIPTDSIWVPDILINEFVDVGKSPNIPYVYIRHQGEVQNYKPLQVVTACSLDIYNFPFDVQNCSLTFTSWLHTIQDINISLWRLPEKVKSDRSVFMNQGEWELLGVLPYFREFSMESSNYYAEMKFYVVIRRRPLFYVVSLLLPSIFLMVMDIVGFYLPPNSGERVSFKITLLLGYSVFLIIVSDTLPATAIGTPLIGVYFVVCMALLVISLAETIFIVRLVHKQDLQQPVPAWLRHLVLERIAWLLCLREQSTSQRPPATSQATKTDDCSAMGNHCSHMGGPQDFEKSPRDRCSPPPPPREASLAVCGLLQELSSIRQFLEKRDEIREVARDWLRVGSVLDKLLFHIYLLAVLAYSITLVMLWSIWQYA
# Assay: Compound was evaluated for its binding affinity towards 5-hydroxytryptamine 3 receptor
row,SMILES,Ki [nM]
1,Cc1[nH]c2ccc(O)cc2c1CCN,1200
2,COc1ccc2[nH]c(C)c(CCN)c2c1,> 10000
